Read-outs that look alike come from different tables or passages of the source.
Experiments:
[1] = system: 3T3/H-Ras (NIH 3T3 clone 7 cells expressing genomic fragment of oncogenic H-Ras); assay: Growth of NIH 3T3 cells over expressing H-Ras (SRB); assay type: cell-based; details: Mus musculus, NIH3T3, 72 h; cell growth, 2% calf serum/DMEM, 3 days with compound
Method: The following assay measures growth rates for NIH-3T3 cells expressing RAS. The purpose of the assay is to determine the effects of compounds on the growth of NIH 3T3 cells over expressing H-Ras.
3T3/H-Ras (NIH 3T3 clone 7 cells expressing genomic fragment of oncogenic H-Ras).
2% calf serum/DMEM+2 mM glutamine, Pen/Strep
(§1) 1. Trypsinize cells. Transfer […] of cell suspension to 10 mL of isotone. Count cells with a Coulter Counter.
2. Dilute cells in growth medium to 60,000 cell/mL. Transfer 100 µL of cells to each well in a 96-well flat bottom plate to give 6000 cells/well.
3. Use half of plate (4 rows) for each comound and quadruplicate wells for each comound concentration, and a set of 4 wells for medium control.
(§2) 4. Gently shake plates to allow for uniform attachment of the cells.
(§3) 5. Incubate the plates at 37 C in a 10% CO2 incubator.
1. In a 96-well round bottom plate, add 120 µL of growth medium containing 2×final % DMSO found in highest screening concentration of compound to columns 1 to 11. For example, if the highest concentration is […], and this is made from a 100 mM stock, 1×DMSO is 0.1%, so 2×DMSO is 0.2%. This plate is used to titrate out the compound, 4 rows per compound.
2. In a sterile 15 mL tube, make a 2×solution of the highest screening concentration of compound in growth medium plus 2×DMSO. 1 mL per cell line is needed. The starting concentration of the compound is usually 100 µM but this concentration may vary depending upon the solubility of the compound.
3. Transfer 240 µL of the 2×starting compound solution to qudruplicate wells in column 12 of the 96-well round bottom plate. Do 1:2 serial dilutions across the plate from right to left by transferring […] from column 12 to column 11, column 11 to 10 and so on through column 2. Transfer 100 µL of compound dilutions, and 100 µL of medium in column 1, onto […] medium on cells in corresponding wells of 96-well flat bottom plate. Total volume per well should be […].
4. Return the plate to the incubattor and incubate for 3 days.
(§4) 1. Aspirate or pour off medium. Add […] cold 10% TCA to each well to fix cells. Incubate plate for at least 60 min. at 4 C.
(§5) 2. Discard TCA and rinse wells 5 times with tap water. Dry plates upside down on paper towels.
(§6) 3. Stain cells with 100 µL/well 0.4% SRB for 10 min.
4. Pour of SRB and rinse wells 5 times with 1% acetic acid. Dry plates completely upside down on paper towels.
(§7) 5. Solubilize dye with 100 µL/well 10 mM Tris base for 5-10 min. on shaker.
6. Read plates on Dynatech ELISA Plate REader at 570 nm with reference at 630 nm.

[2] = system: A549 human lung carcinoma cells; assay: Growth of A549 cells (SRB); assay type: cell-based; details: cell growth
Method: The following assay measures growth rates for A549 cells. The purpose of the assay is to determine the effects of compounds on the growth of A549 human lung carcinoma cells. A549 cells are readily accessible from commercial sources, such as ATCC (CCL185). […]
as §1
2. Dilute cells in growth medium to 20,000 cell/mL. Transfer 100 µL of cells to each well in a 96-well flat bottom plate to give 2000 cells/well.
3. Use half of plate (4 rows) for each compound and quadruplicate wells for each compound concentration, and a set of 4 wells for medium control.
as §2, §3
1. In a 96 well-round bottom plate, add 120 µL of growth medium containing 2×final %DMSO found in highest screening concentration of compound to columns 1 to 11. For example, if the highest screening concentration is 100 µM, and this is made from a 100 mM stock, 1×DMSO is 0.1%, so 2×DMSO is 0.2%. This plate is used to titrate out the compound, 4 rows per compound.
2. In a sterile 15 mL tube, make a 2×solution of the highest screening concentration of compound in growth medium plus. 2×DMSO. 1 mL per cell line is needed. The starting concentration of the compound is usually 100 µM but this concentration may vary depending upon the solubility of the compound.
3. Transfer 240 µL of the 2×starting compound solution to quadruplicate wells in column 12 of the 96-well round bottom plate. Do 1:2 serial dilutions across the plate from right to left by transferring […] from column 12 to column 11, column 11 to 10 and so on through column
2. Transfer 100 µL of compound dilutions, and 100 µL of medium in column 1, onto […] medium on cells in corresponding wells of 96-well flat bottom plate. Total volume per well should be 200 L.
4. Return the plate to the incubator and incubate for 3 days.
as §4, §5, §6
4. Pour off SRB and rinse wells 5 times with 1% acetic acid. Dry plates completely upside down on paper towels.
as §7
6. Read plates on Dynatech ELISA Plate Reader at 570 nm with reference at 630 nm.

[3] = 2% FBS, read-out: IC50 (M) A549 (2% FBS)
[4] = growth medium 10% fetal calf serum in Ham's F12-K, read-out: IC50 (M) A549

SMILES	IC50 [1] [µM]	IC50 [2, 3] [M]	IC50 [2, 4] [M]	melting point [°C]
Oc1ccc(-c2cnc3ccc(NCc4ccccc4)nc3n2)cc1 [Compound A-2, 6-Benzylamino-3-(4-hydroxyphenyl)-5-Azaquinoxaline]	7.6	> 1e-05	2.51e-05	271 to 273
Oc1ccc(-c2cnc3ccc(Nc4ccccc4Cl)nc3n2)cc1 [Compound A-36, 6-(2-Chlorophenylamino)3-(4-hydroxyphenyl)-5-azaquinoxaline]	0.18			
Oc1ccc(-c2cnc3ccc(Nc4ccccc4)nc3n2)cc1 [Compound A-1, 6-Phenylamino-3-(4-hydroxyphenyl)-5-azaquinoxaline]	1.04			
Clc1ccccc1Nc1ccc2ncc(-c3ccccc3)nc2n1 [Compound A-77, 6-(2-Chlorophenylamino)-3-phenyl-5-azaquinoxaline]	0.7			
Fc1ccc(CNc2ccc3nc(-c4ccccc4)c(-c4ccccc4)nc3n2)cc1 [Compound A-6, 2,3-Diphenyl-6-(4-fluorobenzylamino)-5-azaquinoxaline]	13.5	> 1e-05	2.38e-05	
